Experimental data from patent US11566029B2, “Pyrazolo[1,5-a]pyrimidine-5,7-diamine compounds as CDK inhibitors and their therapeutic use” (CANCER RESEARCH TECHNOLOGY LIMITED, priority 2014, dated 2023).
pIC50: −log10 of the molar value. Counter-ions that a name gives are not always drawn.

Tests used:
CDK2/cycA1 = target: T1, CDK2/cycA1 (Homo sapiens, UniProt P24941); test: In vitro kinase assay (PKLight luciferase ATP readout), CDK2; format: biochemical; conditions: ATP at Km; read-out: In vitro Kinase Inhibition CDK2 IC50
T1 construct: purchased ProQinase GmbH
Procedure: (§1) Purified recombinant CDK1/cycA1, CDK2/cycA1, CDK4/cycD1, CDK5/p35NCK, CDK6/cycD1, CDK7/CycH/MAT1, and CDK9/CycT1 were purchased from ProQinase GmbH. Kinase assays were performed according to manufacturer's protocols. Rb-CTF (ProQinase GmbH) (cat number: 0040-0000-6) was used as the kinase substrate for CDK1, CDK2, CDK4, and CDK6 kinases. […] A luciferase assay (PKLight assay; Cambrex) was used to determine ATP remaining at the end of the kinase reaction, which provides a measure of kinase activity, according to the manufacturer's protocols.
(§2) Kinase assays were carried out by incubation of increasing amounts of test compound with purified recombinant CDK-Cyclin complex, followed by measurement of free ATP remaining in the reaction using the luciferase assay kit (PKLight, Cambrex) which therefore provided a measure of inhibition for the specific CDK.
(§3) 5 μL of 1× kinase buffer (Cell Signalling Technologies) was mixed with 200 ng CDK1, 200 ng CDK2, 50 ng CDK4, 100 ng CDK5, or 200 ng CDK6 with 5 μg Rb-CTF and 300 ng CDK7 or 200 ng CDK9 with 500 μM RNA Poll II CTD peptide. […] The mixture was incubated at 30° C. for 30 minutes. The reaction is stopped with 20 μL of Stop Solution (provided in the PKLight kit) for 10 minutes at room temperature. Then 40 μL of the luciferase mix was added to the reaction mixture which was incubated for a further 10 minutes at room temperature and measured using the Tecan Infinite 2000 plate reader. GraphPad Prism Software was used to generate standard curve and determine the IC50's for each CDK.

CDK7/CycH/MAT1 = target: T2, CDK7/CycH/MAT1 (Homo sapiens, UniProt P50613); test: In vitro kinase assay (PKLight luciferase ATP readout), CDK7; format: biochemical; conditions: for pIC50: ATP at Km, read-out: In vitro Kinase Inhibition CDK7 IC50; for Selectivity CDK1/CDK7: ratio of CDK1 IC50 to CDK7 IC50; for Selectivity CDK2/CDK7: ratio of CDK2 IC50 to CDK7 IC50
T2 construct: purchased ProQinase GmbH
Procedure: as §1, §2, §3

MCF7 cells = test: Cell growth inhibition assay (sulforhodamine B), MCF7; format: cell-based; conditions: Homo sapiens, 72 hours, SRB assay, read-out: Growth Inhibition, GI50 MCF7
Procedure: (§4) All cells were purchased from the American Type Culture Collection (ATCC) and MCF7 cells were routinely cultured in Dulbecco's Modified Eagle's Medium (DMEM) supplemented with 10% fetal calf serum (FCS) (First Link) and HCT116 cells were routinely cultured in Roswell Park Memorial Instititute Medium (RPMI) supplemented with 10% FCS. Cell growth was assessed using a known sulforhodamine B assay (see, e.g., Skehan et al., 1990).
(§5) MCF-7 cells purchased from ATCC (USA) were routinely passaged in DMEM, supplemented with 10% FCS and HCT116 cells purchased from ATCC (USA) were routinely passaged in RPMI supplemented with 10% FCS and kept in a 37° C. incubator with 5% CO2. The growth assay for both cell lines was performed in the appropriate media using the exact same protocol as described here. For the growth assay, 5000 cells were seeded into each well of 96-well plates in DMEM containing 10% FCS. Test compounds prepared in DMSO were added to the medium at concentrations ranging from 0.00038-100 μM. The cells were incubated for a further 72 hours, at which time they were fixed by the addition of 100 μL/well of ice-cold 40% trichloroacetic acid (TCA). The plates were left for 1 hour at 4° C., washed in water and 100 μL of 0.4% (w/v) sulforhodamine (SRB; Sigma-Aldrich, UK) prepared in 1% acetic acid was added. Plates were washed in 1% acetic acid to remove excess SRB reagent, air dried, and bound dye was solubilized by the addition of 100 μL of 10 mM tris base. The plates were read at 492 nm using a plate reader.

HCT116 cells = test: Cell growth inhibition assay (sulforhodamine B), HCT116; format: cell-based; conditions: Homo sapiens, HCT-116; 72 hours, SRB assay; read-out: Growth Inhibition, GI50 HCT116
Procedure: as §4, §5

CDK1/cycA1 = target: T3, CDK1/cycA1 (Homo sapiens, UniProt P06493); test: In vitro kinase assay (PKLight luciferase ATP readout), CDK1; format: biochemical; conditions: ATP at Km; read-out: In vitro Kinase Inhibition CDK1 IC50
T3 construct: purchased ProQinase GmbH
Procedure: as §1, §2, §3

T2 sequence (P50613 whole entry): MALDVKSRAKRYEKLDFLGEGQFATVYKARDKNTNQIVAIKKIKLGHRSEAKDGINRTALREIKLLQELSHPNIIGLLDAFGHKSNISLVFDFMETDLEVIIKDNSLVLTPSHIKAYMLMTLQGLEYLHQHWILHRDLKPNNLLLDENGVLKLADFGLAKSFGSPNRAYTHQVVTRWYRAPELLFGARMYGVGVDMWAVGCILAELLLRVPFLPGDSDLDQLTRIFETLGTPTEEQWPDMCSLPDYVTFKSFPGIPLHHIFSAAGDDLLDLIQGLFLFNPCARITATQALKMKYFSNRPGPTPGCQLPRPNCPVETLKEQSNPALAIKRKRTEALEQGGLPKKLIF
T2 sequence (P51946 whole entry partner): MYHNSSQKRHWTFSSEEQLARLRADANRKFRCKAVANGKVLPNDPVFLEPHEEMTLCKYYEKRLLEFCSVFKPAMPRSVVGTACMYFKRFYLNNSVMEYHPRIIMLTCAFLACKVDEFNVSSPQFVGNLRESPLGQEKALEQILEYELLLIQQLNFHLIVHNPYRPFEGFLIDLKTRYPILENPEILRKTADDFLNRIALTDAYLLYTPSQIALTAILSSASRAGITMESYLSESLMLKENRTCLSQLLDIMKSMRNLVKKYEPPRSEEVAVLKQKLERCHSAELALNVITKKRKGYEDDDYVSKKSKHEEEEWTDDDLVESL
T2 sequence (P51948 whole entry partner): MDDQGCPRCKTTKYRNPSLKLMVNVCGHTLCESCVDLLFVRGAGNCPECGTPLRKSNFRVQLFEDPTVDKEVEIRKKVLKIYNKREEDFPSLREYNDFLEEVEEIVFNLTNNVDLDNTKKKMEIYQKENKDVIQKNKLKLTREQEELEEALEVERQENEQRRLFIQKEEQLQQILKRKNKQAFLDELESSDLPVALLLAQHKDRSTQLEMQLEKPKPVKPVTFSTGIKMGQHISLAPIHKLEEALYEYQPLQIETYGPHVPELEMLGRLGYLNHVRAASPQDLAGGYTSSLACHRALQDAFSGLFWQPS

SMILES	pIC50 (CDK2/cycA1)	pIC50 (CDK7/CycH/MAT1)	Selectivity CDK1/CDK7 (CDK7/CycH/MAT1)	Selectivity CDK2/CDK7 (CDK7/CycH/MAT1)	GI50 (MCF7 cells)	GI50 (HCT116 cells)	pIC50 (CDK1/cycA1)
CC(C)c1cnn2c(NCC3CCCCC3)cc(NC[C@]3(O)CCNC[C@H]3O)nc12 (racemic) [PPDA-014]	6.32	6.01	8.9 fold	0.5 fold	45600 nM	53500 nM	5.06
CO[C@H]1CN[C@H](CNc2cc(NCc3ccccc3)n3ncc(C(C)C)c3n2)C1 [PPDA-029]	5.55	6.00	–	2.8 fold	17600 nM	> 100000 nM	–
CC(C)c1cnn2c(NCc3ccccc3)cc(NCC3CCNCC3)nc12 [XX-01, reference compound]	–	6.51	–	–	12200 nM	18700 nM	–
CC(C)c1cnn2c(NCc3ccccc3)cc(NC[C@H]3NCC[C@@H]3O)nc12 [PPDA-031]	6.41	6.33	–	0.8 fold	5600 nM	20400 nM	–
CC(C)c1cnn2c(NCc3ccccc3)cc(N[C@H]3CNCC[C@@]3(O)CO)nc12 [PPDA-024]	5.99	6.82	5.6 fold	6.8 fold	12200 nM	46400 nM	6.07
CC(C)c1cnn2c(NCc3ccncc3)cc(NC[C@@]3(CO)CCNC3)nc12 (racemic) [PPDA-020]	7.66	7.36	10 fold	0.5 fold	600 nM	1500 nM	6.36
CC(C)c1cnn2c(NCc3ccccc3)cc(N[C@@H]3CNCC[C@H]3O)nc12 [PPDA-022, (3R,4R)-3-(7-(Benzylamino)-3-iso-propyl-pyrazolo[1,5-a]pyrimidin-5-ylamino) piperidin-4-ol]	6.25	7.14	26 fold	7.8 fold	3700 nM	10400 nM	5.72
CC(C)c1cnn2c(NCc3ccccc3)cc(NC[C@H]3CCCC[C@@H]3O)nc12 [XX-02, reference compound]	–	6.16	–	–	47000 nM	> 100000 nM	–
CC(C)c1cnn2c(NCC3CCCCC3)cc(NC[C@H]3CCNC[C@@H]3O)nc12 [PPDA-004]	5.89	6.03	1.9 fold	1.4 fold	2700 nM	2500 nM	5.74
CC(C)c1cnn2c(NC3CCN(S(=O)(=O)c4ccc(F)cc4)CC3)cc(NC[C@H]3CCNC[C@@H]3O)nc12 [PPDA-006]	6.75	7.40	10 fold	4.5 fold	8400 nM	10000 nM	6.39
CC(C)c1cnn2c(NCc3ccccc3)cc(NC3CNCC[C@]3(O)CO)nc12 (stereo partly drawn) [PPDA-025]	–	–	3.7 fold	1.4 fold	10100 nM	23700 nM	–
CC(C)c1cnn2c(NCC3CCCCC3)cc(NCC3(O)CCNCC3)nc12 [PPDA-013]	6.46	7.10	4.1 fold	4.3 fold	1200 nM	1100 nM	6.48
CC(C)c1cnn2c(NCc3ccccc3Br)cc(NCC3(O)CCNCC3)nc12 [PPDA-012]	6.93	6.32	0.2 fold	0.2 fold	500 nM	1600 nM	7.13
CC(C)c1cnn2c(Nc3ccc(N4CCN(C)CC4)cc3)cc(NC[C@H]3CCNC[C@@H]3O)nc12 [PPDA-007, (3R,4R)-4-((3-iso-Propyl-7-(4-(4-methylpiperazin-1-yl)phenylamino)pyrazolo[1,5-a]pyrimidin-5-ylamino)methyl)piperidin-3-ol hydrochloride]	6.30	6.34	2.5 fold	1.1 fold	2100 nM	4100 nM	5.94
CC(C)c1cnn2c(NCc3ccccc3)cc(NC[C@H]3NC[C@H](O)[C@@H]3O)nc12 [PPDA-032]	5.82	6.52	–	4.9 fold	–	–	–
CC(C)c1cnn2c(NCc3ccccc3)cc(NC[C@@H]3C[C@@H](O)CN3)nc12 [PPDA-030]	6.00	7.23	–	17 fold	20200 nM	> 100000 nM	–
CC(C)c1cnn2c(NCc3ccncc3)cc(NC[C@H]3CCNC[C@@H]3O)nc12 [PPDA-003, (3R,4R)-4-((3-iso-Propyl-7-(pyridin-4-ylmethylamino)pyrazolo[1,5-a]pyrimidin-5-ylamino)methyl)piperidin-3-ol hydrochloride]	6.94	7.33	41 fold	2.5 fold	–	–	5.72
CC(C)c1cnn2c(NC(=O)C3CCNCC3)cc(NC[C@H]3CCNC[C@@H]3O)nc12 [PPDA-009, N-(5-((((3R,4R)-3-Hydroxypiperidin-4-yl)methyl)amino)-3-iso-propylpyrazolo[1,5-a]pyrimidin-7-yl)piperidine-4-carboxamide hydrochloride]	6.34	6.34	1.2 fold	1.0 fold	38900 nM	86600 nM	6.25
CC(C)c1cnn2c(Nc3ccc(S(=O)(=O)N(C)C)cc3)cc(NC[C@H]3CCNC[C@@H]3O)nc12 [PPDA-005]	7.42	6.95	1.9 fold	0.3 fold	4220 nM	7200 nM	6.67
CC(C)c1cnn2c(Nc3csc4ccccc34)cc(NC[C@H]3CCNC[C@@H]3O)nc12 [PPDA-008]	7.38	6.92	25 fold	0.4 fold	3100 nM	5100 nM	5.53
CO[C@@H]1CCNCC1Nc1cc(NCc2ccccc2)n2ncc(C(C)C)c2n1 (stereo partly drawn) [PPDA-023]	6.35	7.22	20 fold	7.5 fold	3700 nM	5600 nM	5.92
CC(C)c1cnn2c(NCc3ccccc3Cl)cc(NC[C@@]3(CO)CCNC3)nc12 (racemic) [PPDA-021]	7.66	7.09	2.2 fold	0.3 fold	200 nM	1200 nM	6.75
CC(C)c1cnn2c(NCc3ccccc3)cc(NCC3(CO)CCNC3)nc12 (racemic) [PPDA-018, (3-((7-(Benzylamino)-3-iso-propylpyrazolo [1,5-a]pyrimidin-5ylamino)methyl)pyrrolidin-3-yl)methanol hydrochloride]	9.00	7.85	2.9 fold	0.1 fold	100 nM	900 nM	7.39
CC(C)c1cnn2c(NCc3ccccc3)cc(N[C@@H]3CNCC[C@]3(O)CO)nc12 [PPDA-025]	6.97	7.11	–	–	–	–	6.55
